Reference: the NIST ThermoML archive (doi:10.1016/j.fluid.2019.112274)

Conditions: Liquid; for thermal diffusivity: Dynamic light scattering; for speed of sound: Brillouin light scattering

CCCCCCCCCC(=O)OCC [ethyl decanoate]
Conditions | speed of sound [m/s] | thermal diffusivity [m2/s]
295.34 K, 5000 kPa | – | 8.46e-08
295.57 K, 10000 kPa | – | 8.67e-08
295.72 K, 7000 kPa | – | 8.54e-08
296.25 K, 3000 kPa | – | 8.37e-08
296.31 K, 100 kPa | – | 8.23e-08
300.71 K, 7000 kPa | 1302.7 | –
300.78 K, 100 kPa | 1283.2 | –
300.78 K, 10000 kPa | 1329.5 | –
300.79 K, 3000 kPa | 1290.7 | –
300.81 K, 5000 kPa | 1295.7 | –
310.13 K, 10000 kPa | – | 8.5e-08
310.16 K, 5000 kPa | – | 8.28e-08
310.19 K, 7000 kPa | – | 8.37e-08
310.26 K, 3000 kPa | – | 8.19e-08
310.29 K, 100 kPa | – | 8.05e-08
310.58 K, 10000 kPa | 1301.3 | –
310.85 K, 100 kPa | 1248.4 | –
310.85 K, 5000 kPa | 1265 | –
310.93 K, 7000 kPa | 1271.5 | –
311.01 K, 3000 kPa | 1258.4 | –
320.9 K, 100 kPa | 1213.6 | –
320.91 K, 5000 kPa | 1233.3 | –
320.94 K, 3000 kPa | 1226.4 | –
320.98 K, 7000 kPa | 1241.3 | –
321 K, 10000 kPa | 1269.6 | –
324.97 K, 5000 kPa | – | 8.07e-08
325.08 K, 7000 kPa | – | 8.16e-08
325.11 K, 3000 kPa | – | 7.98e-08
325.16 K, 10000 kPa | – | 8.29e-08
325.23 K, 100 kPa | – | 7.85e-08
330.76 K, 3000 kPa | 1192.9 | –
330.77 K, 7000 kPa | 1210.4 | –
330.79 K, 10000 kPa | 1239.7 | –
330.81 K, 100 kPa | 1178.4 | –
330.87 K, 5000 kPa | 1199.5 | –
339.12 K, 7000 kPa | 1183 | –
339.89 K, 10000 kPa | – | 8.08e-08
340.05 K, 7000 kPa | – | 7.95e-08
340.11 K, 5000 kPa | – | 7.86e-08
340.16 K, 3000 kPa | – | 7.78e-08
340.18 K, 100 kPa | – | 7.64e-08
340.24 K, 100 kPa | 1144.5 | –
340.56 K, 10000 kPa | 1209.4 | –
340.76 K, 5000 kPa | 1166.4 | –
340.79 K, 3000 kPa | 1157.6 | –
350.12 K, 10000 kPa | 1179.1 | –
350.77 K, 3000 kPa | 1124.1 | –
350.89 K, 7000 kPa | 1145.9 | –
350.97 K, 5000 kPa | 1133.3 | –
350.99 K, 100 kPa | 1106.3 | –
355.14 K, 5000 kPa | – | 7.65e-08
355.19 K, 100 kPa | – | 7.44e-08
355.22 K, 7000 kPa | – | 7.74e-08
355.25 K, 10000 kPa | – | 7.86e-08
355.26 K, 3000 kPa | – | 7.57e-08
360.27 K, 10000 kPa | 1145.7 | –
360.32 K, 100 kPa | 1073.2 | –
360.51 K, 5000 kPa | 1102.5 | –
360.55 K, 7000 kPa | 1115.4 | –
360.75 K, 3000 kPa | 1090.9 | –
369.47 K, 10000 kPa | 1115.6 | –
369.75 K, 3000 kPa | – | 7.34e-08
369.77 K, 7000 kPa | – | 7.5e-08
369.78 K, 5000 kPa | – | 7.42e-08
369.78 K, 10000 kPa | – | 7.63e-08
369.85 K, 100 kPa | – | 7.21e-08
371.22 K, 100 kPa | 1035.6 | –
371.22 K, 7000 kPa | 1081.7 | –
371.31 K, 5000 kPa | 1068.1 | –
371.46 K, 3000 kPa | 1054.6 | –
379.56 K, 7000 kPa | 1055.4 | –
379.62 K, 5000 kPa | 1040.4 | –
379.78 K, 100 kPa | 1005.8 | –
379.78 K, 3000 kPa | 1026.4 | –
383.22 K, 10000 kPa | 1069.6 | –
384.3 K, 3000 kPa | – | 7.11e-08
384.31 K, 100 kPa | – | 6.99e-08
384.31 K, 7000 kPa | – | 7.28e-08
384.32 K, 5000 kPa | – | 7.2e-08
384.32 K, 10000 kPa | – | 7.4e-08
389.06 K, 100 kPa | 973.3 | –
389.19 K, 5000 kPa | 1010.9 | –
389.22 K, 7000 kPa | 1025 | –
389.32 K, 3000 kPa | 996.7 | –
392.15 K, 10000 kPa | 1042.5 | –
399.55 K, 10000 kPa | – | 7.23e-08
399.56 K, 3000 kPa | – | 6.95e-08
399.57 K, 7000 kPa | – | 7.11e-08
399.6 K, 100 kPa | – | 6.82e-08
399.6 K, 5000 kPa | – | 7.03e-08
400.76 K, 100 kPa | 933.3 | –
400.79 K, 3000 kPa | 958.4 | –
400.81 K, 7000 kPa | 989.3 | –
400.9 K, 5000 kPa | 973.6 | –
401.26 K, 10000 kPa | 1015 | –
408.81 K, 3000 kPa | 933.4 | –
409.55 K, 5000 kPa | 946.8 | –
410.3 K, 7000 kPa | 960.7 | –
410.85 K, 100 kPa | 900.2 | –
411.61 K, 10000 kPa | 983.4 | –
414.33 K, 10000 kPa | – | 7.01e-08
414.35 K, 3000 kPa | – | 6.73e-08
414.36 K, 7000 kPa | – | 6.89e-08
414.41 K, 5000 kPa | – | 6.81e-08
414.43 K, 100 kPa | – | 6.61e-08
419.6 K, 100 kPa | 871.4 | –
419.67 K, 3000 kPa | 899.1 | –
419.68 K, 5000 kPa | 915 | –
419.73 K, 7000 kPa | 932.2 | –
423.29 K, 10000 kPa | 949.4 | –
429.05 K, 5000 kPa | – | 6.58e-08
429.1 K, 3000 kPa | – | 6.5e-08
429.14 K, 100 kPa | – | 6.39e-08
429.25 K, 10000 kPa | – | 6.78e-08
429.56 K, 100 kPa | 839.8 | –
429.56 K, 3000 kPa | 868.5 | –
429.6 K, 5000 kPa | 884.8 | –
430.45 K, 7000 kPa | 901.1 | –
432.01 K, 10000 kPa | 925 | –
439.2 K, 10000 kPa | 903.9 | –
439.28 K, 100 kPa | 809.5 | –
439.85 K, 3000 kPa | 836.6 | –
440.02 K, 5000 kPa | 854.6 | –
440.37 K, 7000 kPa | 871.6 | –
444.19 K, 100 kPa | – | 6.21e-08
444.35 K, 5000 kPa | – | 6.4e-08
444.38 K, 3000 kPa | – | 6.32e-08
444.46 K, 10000 kPa | – | 6.59e-08
448.51 K, 10000 kPa | 878.1 | –
449.52 K, 7000 kPa | 845.4 | –
450.25 K, 3000 kPa | 805.8 | –
450.25 K, 5000 kPa | 825.6 | –
451.03 K, 100 kPa | 773.3 | –
458.86 K, 5000 kPa | 801.3 | –
459.76 K, 100 kPa | – | 5.97e-08
459.85 K, 3000 kPa | 778.6 | –
459.9 K, 3000 kPa | – | 6.09e-08
460 K, 10000 kPa | – | 6.34e-08
460.01 K, 7000 kPa | – | 6.23e-08
460.11 K, 100 kPa | 746.8 | –
460.12 K, 5000 kPa | – | 6.16e-08
460.2 K, 7000 kPa | 816 | –
463.71 K, 10000 kPa | 837.3 | –
469.25 K, 3000 kPa | 752.4 | –
469.28 K, 5000 kPa | 771.9 | –
469.32 K, 7000 kPa | 792 | –
469.45 K, 100 kPa | 719.5 | –
470.42 K, 10000 kPa | 819.1 | –
475.26 K, 3000 kPa | – | 5.84e-08
475.27 K, 100 kPa | – | 5.74e-08
475.31 K, 7000 kPa | – | 5.99e-08
475.31 K, 10000 kPa | – | 6.1e-08
475.35 K, 5000 kPa | – | 5.92e-08
479.25 K, 100 kPa | 691.6 | –
479.29 K, 3000 kPa | 724.5 | –
479.47 K, 7000 kPa | 764.5 | –
479.9 K, 5000 kPa | 743.2 | –
481.5 K, 10000 kPa | 791.1 | –
488.69 K, 7000 kPa | 740.9 | –
489.53 K, 3000 kPa | – | 5.62e-08
489.54 K, 5000 kPa | – | 5.69e-08
489.54 K, 7000 kPa | – | 5.76e-08
489.54 K, 10000 kPa | – | 5.87e-08
489.57 K, 100 kPa | – | 5.52e-08
490.41 K, 5000 kPa | 715.7 | –
490.81 K, 3000 kPa | 693.8 | –
492.02 K, 10000 kPa | 764.5 | –
499.48 K, 10000 kPa | 745.9 | –
500.41 K, 5000 kPa | 690.3 | –
500.55 K, 7000 kPa | 711.6 | –
500.76 K, 3000 kPa | 667.8 | –
504.58 K, 5000 kPa | – | 5.45e-08
504.77 K, 7000 kPa | – | 5.52e-08
504.79 K, 3000 kPa | – | 5.39e-08
504.94 K, 10000 kPa | – | 5.62e-08
505.38 K, 100 kPa | – | 5.28e-08
509.33 K, 10000 kPa | 722.7 | –
510.27 K, 5000 kPa | 666.3 | –
510.41 K, 7000 kPa | 686.9 | –
510.65 K, 3000 kPa | 642.8 | –
519.26 K, 3000 kPa | – | 5.2e-08
519.36 K, 5000 kPa | – | 5.26e-08
519.41 K, 7000 kPa | – | 5.33e-08
519.6 K, 10000 kPa | – | 5.43e-08
520.04 K, 10000 kPa | 696.8 | –
520.19 K, 3000 kPa | 619.7 | –
520.25 K, 5000 kPa | 642.5 | –
520.27 K, 7000 kPa | 664.6 | –
529.04 K, 10000 kPa | 678 | –
529.91 K, 5000 kPa | 619.5 | –
530.11 K, 7000 kPa | 641.3 | –
530.36 K, 3000 kPa | 595.4 | –
534.46 K, 5000 kPa | – | 5.06e-08
534.75 K, 7000 kPa | – | 5.12e-08
534.77 K, 3000 kPa | – | 5e-08
535.01 K, 10000 kPa | – | 5.22e-08
540.06 K, 7000 kPa | 618.1 | –
540.09 K, 10000 kPa | 651.8 | –
540.12 K, 5000 kPa | 595.3 | –
540.66 K, 3000 kPa | 570.8 | –
548.94 K, 3000 kPa | 551.9 | –
549.74 K, 5000 kPa | 574.5 | –
549.76 K, 3000 kPa | – | 4.77e-08
549.87 K, 10000 kPa | 630.6 | –
549.96 K, 5000 kPa | – | 4.84e-08
549.97 K, 7000 kPa | – | 4.9e-08
549.99 K, 7000 kPa | 596.7 | –
550.17 K, 10000 kPa | – | 4.99e-08
558.46 K, 3000 kPa | 529.8 | –
559.93 K, 5000 kPa | 551.9 | –
561 K, 10000 kPa | 607 | –
562.07 K, 7000 kPa | 570.2 | –
565.49 K, 10000 kPa | – | 4.76e-08
565.86 K, 5000 kPa | – | 4.61e-08
565.87 K, 7000 kPa | – | 4.67e-08
566.27 K, 3000 kPa | – | 4.55e-08
